Values of other authors in patent US20250332117A1, “Thin Films with Peroxides and Uses Thereof” (Silverpeutics, Inc., priority 2024, published 2025).

Legend:
cells = conditions: general statement, no source given
bacteria = conditions: general statement, no source given

## OO [peroxide, Hydrogen peroxide]
cells
  peroxide concentration at which cell killing is observed: above 500 μM
bacteria
  peroxide concentration at which partial bacteriostatic effects are observed: 25 to 50 µM
